Experimental data taken from patent US20240391954A1, “MC4R AGONIST PEPTIDES” (The Regents of the University of Michigan, priority 2021, published 2024).
“And” between values parts separate entries of the source, which are not always exact repeats. Identical values can stand only once. Positions of bridges follow the written chain, without caps; N, C: chain ends. Non-standard residues stand in square brackets, D forms with d. Residues, ends and D or L forms follow the SMILES beside them. Nle = CCCC[C@H](N)C(=O)O

Legend:
Mouse plasma stability = type: in vitro ADME; details: pooled mouse plasma, 37° C.
Procedure: FIG. 3. Results of plasma stability testing for control peptides. Compounds shown were incubated in mouse plasma at 37° C. at 1 μM concentrations. 40 ul aliquots were removed at the times indicated and the reactions stopped with the addition of 160 μL cold acetonitrile containing 200 ng/ml of peptide internal standard (IS). The incubation solution was centrifuged at 3500 rpm for 10 minutes to precipitate protein. LC/MS/MS analysis was used to determine the % peptide remaining.
Pooled mouse plasma was prepared and stored at −80° C, prior to use, 396 μL mouse plasma was incubated at 37° C. for 5 minutes in 1.5 mL microcentrifuge tubes. 4 μL of 100 μM test or control compound/peptide was added to each tube and incubated for 0.5, 15, 30, 60, 120, or 240 minutes. An aliquot of 40 μL of each reaction was stopped by the addition of 4 volume of cold acetonitrile containing 200 ng/mL of […] solution was centrifuged at 3500 rpm for 10 minutes to precipitate protein. The supernatant was used for LC/MS/MS analysis. The natural log peak area ratio (compound peak area/internal standard peak area) was plotted against time and the gradient of the line determined.

[1] = Plasma protein binding (Centrifree ultrafiltration); type: in vitro ADME
Procedure: Solutions of test compound in DMSO were prepared at 1 mM, 100 uM and 10 uM, 5 ul of each solution of test compound was added to 495 uL plasma, and incubated at 25° C. for 5 min. Sample was added to a Centrifree® device, then centrifuged at 2000× g for 20 min to obtain desired filtrate volume. Initial plasma samples and ultrafiltrates were subjected to LC-MS/MS. % Free peptide=(concentration of ultrafiltrates/concentration of plasma)×100%. % Bound=100%−% Free

[2] = Pharmacokinetics: plasma and brain concentration after IP injection; type: in vivo, mouse; details: IP 15 mg/kg; for Brain concentration, individual mice 1-3 / Plasma concentration, individual mice 1-3: 15 mg/kg
Procedure: FIG. 5. Pharmacokinetic data for an exemplary peptide relative to setmelanotide. Peptides at 1.5 mg/mL in PBS containing 10% DMSO and 10% PEG-400 were given by IP injection (15 mg/kg) to female CD-1 mice (n=15). At the given time points (0.5 h, 2 h, 4 h, 7 h and 24 h), brain samples were taken out and frozen at −80° C. immediately for later preparation and analysis, and blood samples were collected using heparinized calibrated pipettes. Blood samples were centrifuged at 15000 rpm for 10 min. Subsequently, blood plasma was collected from the upper layer. The plasma was frozen at −80° C. for later analysis. Peptide concentrations at times indicated were determined by LC MS/MS, using non-zero standards in blank Plasma and Brain Samples.
The drug at 1.5 mg/mL in PBS containing 10% DMSO and 10% PEG-400 was given by IP injection (15 mg/kg). At the given time points (0.5 h, 2 h, 4 h, 7 h and 24 h), brain samples were taken out and frozen at −80° C. immediately for later preparation and analysis, and blood samples were collected using heparinized calibrated pipettes. Blood samples were centrifuged at 15000 rpm for 10 min. Subsequently, blood plasma was collected from the upper layer. The plasma was frozen at −80° C. for later analysis.
The analytical curves were constructed using non-zero standards in the blank Plasma and Brain Samples. A blank sample (matrix sample processed without internal standard) was used to exclude contamination. The linear regression analysis of CTX1227/setmelanotide were performed by plotting the peak area ratio (y) against the CTX1227/setmelanotide concentration (x) in ng/mL, respectively.

`CCCC[C@H](NC(=O)[C@H](CCCNC(=N)N)NC(C)=O)C(=O)N[C@H]1CSSC[C@@H](C(N)=O)NC(=O)[C@H](Cc2c[nH]c3ccccc23)NC(=O)[C@H](CCCNC(=N)N)NC(=O)[C@@H](Cc2ccccc2)NC(=O)[C@H](Cc2c[nH]cn2)NC1=O` [CTX-1227, Arg-Nle-cyclo(Cys-His-D-Phe-Arg-Trp-Cys)] (Ac-R[Nle]CH[dF]RWC-NH2; disulfide 3-8 (inferred)) showed a half-life at 1 µM (Mouse plasma stability) of 1.05 h, a fraction unbound at 5 min, 0.1 µM ([1]; 0.1 uM) of 0.5 and a fraction unbound at 5 min, 1 µM ([1]; 1.0 uM) of 0.53. For the same compound, the fraction unbound at 5 min, 10 µM ([1]; 10.0 uM) was 0.46, the “Brain concentration, individual mice 1-3” value ([2]; 0.5 h, brain, individual animals) was 99 ng/g and 263.5 ng/g and 182 ng/g and the “Plasma concentration, individual mice 1-3” value (shortened to “Plasma concentration”) ([2]; 0.5 h, plasma, individual animals) was 20900 ng/mL and 25000 ng/mL and 68700 ng/mL. The “Brain concentration, individual mice 1-3” value ([2]; 2 h, brain, individual animals) was 287.5 ng/g and 176.5 ng/g and 327.5 ng/g, the “Plasma concentration” value ([2]; 2 h, plasma, individual animals) was 50200 ng/mL and 17300 ng/mL and 20700 ng/mL and the “Brain concentration, individual mice 1-3” value ([2]; 4 h, brain, individual animals) was 158 ng/g and 142.5 ng/g and 210 ng/g. The “Plasma concentration” value ([2]; 4 h, plasma, individual animals) was 19400 ng/mL and 23300 ng/mL and 33400 ng/mL, the “Brain concentration, individual mice 1-3” value ([2]; 7 h, brain, individual animals) was 223 ng/g and 224.5 ng/g and 119 ng/g and the “Plasma concentration” value ([2]; 7 h, plasma, individual animals) was 9360 ng/mL and 9210 ng/mL and 2880 ng/mL. The “Brain concentration, individual mice 1-3” value ([2]; 24 h, brain, individual animals) was “BlQ and BLQ (2×)”, the “Plasma concentration” value ([2]; 24 h, plasma, individual animals) was “BLQ” and the tissue level at time at 0.5 h ([2]; female, CD-1, mouse, mice, 0.5 h, brain, mean of 3) was 182 ng/g. For the same compound, the level at 0.5 h ([2]; female, CD-1, mouse, mice, 0.5 h, plasma, mean of 3) was 38200 ng/mL, the tissue level at time at 2 h ([2]; female, CD-1, mouse, mice, 2 h, brain, mean of 3) was 264 ng/g and the level at 2 h ([2]; female, CD-1, mouse, mice, 2 h, plasma, mean of 3) was 29400 ng/mL. The tissue level at time at 4 h ([2]; female, CD-1, mouse, mice, 4 h, brain, mean of 3) was 170 ng/g, the level at 4 h ([2]; female, CD-1, mouse, mice, 4 h, plasma, mean of 3) was 25400 ng/mL and the tissue level at time at 7 h ([2]; female, CD-1, mouse, mice, 7 h, brain, mean of 3) was 189 ng/g. It also gave a level at 7 h ([2]; female, CD-1, mouse, mice, 7 h, plasma, mean of 3) of 7150 ng/mL and a level at 24 h ([2]; female, CD-1, mouse, mice, 24 h, plasma, individual animals, read-out: Plasma concentration, individual mice 1-3) of 15 ng/mL.
